Assay results taken from US20090075972A1, “Use of Midostaurin for Treating Gastrointestinal Stromal Tumors” (priority 2004, published 2009).
Read-outs that look alike come from different tables or passages of the source.

Assays:
[1] = tested on: GISTs; details: one reported study; cited from earlier work
[2] = tested on: T674 I mutant form of FIPL1-PDGFRA; details: refractory CEL patients; Cools J. et al., Cancer Cell 2003; cited from earlier work
[3] = target: T1, PDGFRA ΔDIM842-844 (Homo sapiens, UniProt P16234, DEL842-844); test: Dose response curves of Ba/F3 cells expressing mutant kinase (viable cells after 24 hrs); assay type: cell-based
T1 construct: expressed in transfected cells; host or cells: Ba/F3 murine cells, retroviral transduction with pMSCV-puro
Experimental: (§1) Construct: Mutant PDGFRA and KIT cDNA are obtained by RT-PCR on RNA isolated from progressive tumors. The cDNA's are cloned into the retroviral vector pMSCV-puro (Clontech).
(§2) Cell culture: 293T cells are grown in DMEM supplemented with 10% FCS. Ba/F3 cells are grown in RPMI-1640 supplemented with 10% FCS and interleukin-3 (1 ng/ml). Virus as produced as described previously, see e.g. Cools J. et al., N Engl J Med 2003; 348:1201-1214.
(§3) .Ba/F3 cells transduced with the different constructs are selected with puromycin (2 μg/ml). To test for factor independent growth, Ba/F3 cells are washed 3 times in PBS and new cultures are initiated in the absence of interleukin-3. Cells that became independent on interleukin-3, are maintained in the absence of interleukin-3. For dose-response curves, Ba/F3 cells are grown in 24-well plates with different concentrations of inhibitor. The number of viable cells is determined at the start and after 24 hrs, using the AqueousOne solution (Promega).
(§4) Ba/F3 cells are IL3 dependent for their growth, but become IL3 independent upon the expression of many activated kinases, such as FIP1 L1-PDGFRA and BCR-ABL. […] The PDGFRA ΔDIM842-844 mutant serve as a control in this experiment.

[4] = target: T2, PDGFRA D842V (Homo sapiens, UniProt P16234, D842V); test: as above; assay type: cell-based
T2 construct: expressed in transfected cells; host or cells: Ba/F3 murine cells, retroviral transduction with pMSCV-puro
Experimental: as §1, §2, §3, §4

[5] = target: T3, KITΔ557-558/T670I (Homo sapiens, UniProt P10721, DEL557-558/T670I); details: 90 min, KITΔ557-558/T670I cells
Experimental: (§5) Western-blot: Snap-frozen tumor specimens sufficient for preparation of cell lysates were available from ten refractory GISTs. Cell lysis, SDS-PAGE and immunoblotting were carried out as described.^21 Membranes (Amnersham Pharmacia Biotechnology, UK) were immunoblotted overnight using anti-phospho-KIT (Y703) (Zymed, San Francisco, Calif.) antibody at dilution of 1:500. The HRP-conjugated anti-rabbit IgG was used at a dilution of 1:2500 and visualized with Enhanced Chemiluminescence (Pierce). Membranes were then stripped and re-blotted to determine total protein levels using an antibody recognizing total KIT protein (anti-CD117, A4502, DAKO, Glostrup, Denmark).
(§6) Experiments are performed with serial dilutions of the 10 mM stock. Controls are performed with solvent (DMSO) dilutions. Primary cells are obtained from collagenase disaggregated progressive tumor specimens, seeded at 60-70% confluence in 100-mm cell culture dishes (Corning Inc., Corning, N.Y.) and grown for three days in DMEM supplemented with 10% fetal bovine serum, 0.1 mM nonessential amino acids, and 1.0 mM sodium pyruvate.
(§7) The results are compared with GIST882 cells, which carry a hemizygous KIT K642E mutation. Observations are standardized for total KIT expression using anti-KIT antibody.

[6] = target: KITInsAY502-503/V654A (Homo sapiens, UniProt P10721, INS503AY/V654A); details: KITIns503AY/V654A cells
Experimental: as §5, §6, §7

[7] = target: T3, KITΔ557-558/T670I; details: Ba/F3 cells
Experimental: as §1, §2, §3, §4

[8] = human trials; cited from earlier work

Row | Structure (SMILES) | patients with primary resistance to imatinib [1] | inhibitory activity against imatinib-resistant T674I FIPL1-PDGFRA [2] | concentration at which mutant is inhibited [3] | inhibition of PDGFRA D842V mutant ([4]; 1 μM) | concentration at which mutant is inhibited ([4]; PDGFRA D842V) | KIT autophosphorylation ([5]; 0.5 μM) | KIT autophosphorylation ([5]; 1 μM) | KIT autophosphorylation ([6]; 0.5 μM, 90 min) | KIT autophosphorylation ([6]; ten-fold higher concentration than 0.5 μM) | concentration at which mutant is inhibited [7] | Maximum Tolerated Dose (MTD), total dose [8]
1 | Cc1ccc(NC(=O)c2ccc(CN3CCN(C)CC3)cc2)cc1Nc1nccc(-c2cccnc2)n1 [imatinib] | 13.7% |  |  |  |  |  |  |  |  |  | 
2 | CO[C@@H]1[C@H](N(C)C(=O)c2ccccc2)C[C@H]2O[C@]1(C)n1c3ccccc3c3c4c(c5c6ccccc6n2c5c31)C(=O)NC4 [PKC412, N-[(9S,10R,11R,13R)-2,3,10,11,12,13-hexahydro-10-methoxy-9-methyl-1-oxo-9,13-epoxy-1H,9H-diindolo[1,2,3-gh:3′,2′,1′-lm]pyrrolo[3,4-j][1,7]benzodiazonin-11-yl]-N-methylbenzamide] |  | full inhibitory activity | below 1 μM | efficiently inhibits | below 1 μM | reduced | totally inhibit | reduced | completely inhibited | below 1 μM | ~225 mg/day
